This assay deals with T1, soluble ectodomain of sortilin-6his (Homo sapiens, UniProt Q99523, V650M).
T1 construct: the soluble ectodomain of sortilin-6his is measured by microscale thermophoresis (MST)
As to the kind of experiment: MST binding to soluble ectodomain of sortilin-6his. Particulars: MST, read-out: KD score, binding to sortilin (Kd). As for the experimental part:
At this point the plate was sealed with adhesive strip and placed on an Eppendorf thermomixer to shake at 600 rpm for 3 min before spinning on a Fisherbrand plate-spinner for 15 seconds and further incubation 1 hrs at 19° C. MST was measured on a Monolith NT. Automated (Nanotemper) in standard-treated capillaries at 5% LED-power and high MST-power. Dose-response was extracted from the raw thermographs at 20 sec hot-time and the dissociation constant was estimated by sigmoidal curve fitting in MO. Affinity analysis program (Nanotemper). All experiments were run in duplicates.

Where [1] appears, read: Table 3, monofunctional peptides.
[2] abbreviates: Table 4, small molecule bifunctional compounds.

This note sets out measurements from US20250345446A1 (Draupnir Bio ApS, priority 2022, published 2025).

Where two headings read alike, the source gives them in different places. Residues, ends and D or L forms follow the SMILES beside them. No end group written: not given here.

T1 sequence (Q99523 with tags, fused parts or gaps V650M): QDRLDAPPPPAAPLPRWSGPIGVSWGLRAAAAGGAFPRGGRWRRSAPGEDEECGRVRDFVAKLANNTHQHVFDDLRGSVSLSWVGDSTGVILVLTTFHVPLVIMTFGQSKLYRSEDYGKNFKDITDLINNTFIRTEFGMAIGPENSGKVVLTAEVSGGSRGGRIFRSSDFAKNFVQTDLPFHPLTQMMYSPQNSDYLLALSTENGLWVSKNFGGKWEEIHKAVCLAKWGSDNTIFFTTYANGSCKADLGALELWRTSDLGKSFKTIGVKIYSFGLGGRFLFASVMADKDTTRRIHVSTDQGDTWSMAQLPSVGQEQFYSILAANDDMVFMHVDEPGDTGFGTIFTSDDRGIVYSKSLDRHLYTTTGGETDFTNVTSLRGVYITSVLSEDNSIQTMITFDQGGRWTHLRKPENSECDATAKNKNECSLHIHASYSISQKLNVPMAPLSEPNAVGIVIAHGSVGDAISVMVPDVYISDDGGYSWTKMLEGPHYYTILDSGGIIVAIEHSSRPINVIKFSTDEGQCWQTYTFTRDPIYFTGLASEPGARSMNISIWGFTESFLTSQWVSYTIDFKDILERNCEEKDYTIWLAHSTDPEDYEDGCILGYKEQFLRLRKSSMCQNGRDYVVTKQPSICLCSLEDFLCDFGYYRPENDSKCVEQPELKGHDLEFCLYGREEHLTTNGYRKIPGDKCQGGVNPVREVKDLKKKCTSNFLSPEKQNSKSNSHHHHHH

As for REAPRWDAPLRDPALFQLL-OH [compound 58], the Kd under setting [1] is less than 25 nM.
The same measure, in the same setting: the figure for `CC[C@H](C)[C@H](NC(=O)[C@H](Cc1ccc(O)cc1)NC(=O)[C@@H]1CCCN1C(=O)[C@H](CCCNC(=N)N)NC(=O)[C@H](CCCNC(=N)N)NC(=O)[C@@H]1CCCN1C(=O)[C@H](CCCCN)NC(=O)[C@H](CC(N)=O)NC(=O)[C@H](CCC(=O)O)NC(=O)[C@H](Cc1ccc(O)cc1)NC(=O)[C@@H](N)CC(C)C)C(=O)N[C@@H](CC(C)C)C(=O)O` [compound 56] is 25 to 250 nM.
Turning to `CC(C)(C)CC[C@H](NC(=O)c1ccc(Oc2cccc(C(=O)NCCOCCNc3ncc(-c4ccc5c(n4)N(Cc4cccnc4C#N)C(C)(C)C5=O)cn3)c2)nc1)C(=O)O` [BF060, (2S)-2-[[6-[3-[2-[2-[[5-[1-[(2-cyano-3-pyridyl)methyl]-2,2-dimethyl-3-oxo-pyrrolo[2,3-b]pyridin-6-yl]pyrimidin-2-yl]amino]ethoxy]ethylcarbamoyl]phenoxy]pyridine-3-carbonyl]amino]-5,5-dimethyl-hexanoic acid], the equilibrium dissociation constant (Kd) under setting [2] lay in the range of 1 to 10 nM.
Take `C[C@@H]1CN(c2ncc(-c3ccc4c(n3)N(Cc3cccnc3C#N)C(C)(C)C4=O)cn2)CCN1C(=O)COCCCCCCNC(=O)COc1cccc(Oc2ccc(C(=O)N[C@@H](CCC(C)(C)C)C(=O)O)cn2)c1` [BF036]: under setting [2], the Kd is 1 to 10 nM.
Consider “H-ITVDPRLFKKRRLRSPRVLF-NH2 [compound 48]”, for which the Kd under setting [1] was greater than 2500 nM.
As for `CC[C@H](C)[C@H](NC(=O)[C@H](Cc1ccc(O)cc1)NC(=O)[C@@H]1CCCN1)C(=O)N[C@@H](CC(C)C)C(=O)O` [compound 26] (H-PYIL-OH), under setting [1], the Kd was 25 to 250 nM.
The same measure, in the same setting: to `CC(C)C[C@H](NC(=O)[C@H](CCCNC(=N)N)NC(=O)[C@H](CCCNC(=N)N)NC(=O)[C@H](CCCCN)NC(=O)[C@H](CCCCN)NC(=O)[C@H](Cc1ccccc1)NC(=O)[C@H](CC(C)C)NC(=O)[C@@H](N)CCCNC(=N)N)C(=O)N[C@@H](CCCNC(=N)N)C(=O)N[C@@H](CO)C(=O)N1CCC[C@H]1C(=O)N[C@@H](CCCNC(=N)N)C(=O)N[C@H](C(=O)N[C@@H](CC(C)C)C(=O)N[C@@H](Cc1ccccc1)C(N)=O)C(C)C` [compound 47] belongs greater than 2500 nM; to `CC(C)C[C@H](N)C(=O)N[C@@H](Cc1ccc(O)cc1)C(=O)N[C@@H](CCC(=O)O)C(=O)N[C@@H](CC(N)=O)C(N)=O` [compound 64] (H-LYEN-NH2; N-terminus assumed), greater than 2500 nM.
In the case of `CC(C)(C)CC[C@H](NC(=O)c1ccc(Oc2cccc(C(=O)NCCOCCOCCOCCOCCOCCOc3ncc(-c4ccc5c(n4)N(Cc4cccnc4C#N)C(C)(C)C5=O)cn3)c2)nc1)C(=O)O` [BF059], the dissociation constant Kd under setting [2] is less than 1 nM.
For the compound APLRDPAPRQLL-OH [compound 57], the Kd under setting [1] lay in the range of 25 to 250 nM.
Regarding TGGFM-OH [compound 62], under setting [1], the dissociation constant (Kd) was greater than 2500 nM.
Same read-out and setting: the figure for `CC(C)C[C@H](NC(=O)[C@H](CC(C)C)NC(=O)[C@H](CCC(N)=O)NC(=O)[C@@H](N)CCCCN)C(=O)O` [compound 24] (H-KQLL-OH) is 25 to 250 nM.
As to `CC(C)C[C@H](NC(=O)[C@H](CCC(N)=O)NC(=O)[C@@H](N)CCCNC(=N)N)C(=O)N[C@@H](Cc1ccccc1)C(=O)O` [compound 164] (H-RQLF-OH), the Kd under setting [1] was greater than 2500 nM.
`Cc1nc2cc(F)c(-c3cnc(OCCN4CCC(n5cc(COCC(=O)N6CCC(OCCNC(=O)COc7cccc(Oc8ccc(C(=O)N[C@@H](CCC(C)(C)C)C(=O)O)cn8)c7)CC6)nn5)CC4)nc3)nc2c(N[C@H](C)c2cc(C#N)ccc2F)c1Cl` [BF090, (2S)-2-[[6-[3-[2-[2-[[1-[2-[[1-[1-[2-[5-[7-chloro-8-[[(1R)-1-(5-cyano-2-fluoro-phenyl)ethyl]amino]-3-fluoro-6-methyl-1,5-naphthyridin-2-yl]pyrimidin-2-yl]oxyethyl]-4-piperidyl]triazol-4-yl]methoxy]acetyl]-4-piperidyl]oxy]ethylamino]-2-oxo-ethoxy]phenoxy]pyridine-3-carbonyl]amino]-5,5-dimethyl-hexanoic acid]: the dissociation constant (Kd) under setting [2] is less than 1 nM.
For the compound `C[C@@H]1CN(c2ncc(-c3ccc4c(n3)N(Cc3cccnc3C#N)C(C)(C)C4=O)cn2)CCN1C(=O)Cn1cc(COCCOCCOCCOCCOc2cccc(Oc3ccc(C(=O)N[C@@H](CCC(C)(C)C)C(=O)O)cn3)c2)nn1` [BF101, (2S)-2-[[6-[3-[2-[2-[2-[2-[[1-[2-[(2R)-4-[5-[1-[(2-cyano-3-pyridyl)methyl]-2,2-dimethyl-3-oxo-pyrrolo[2,3-b]pyridin-6-yl]pyrimidin-2-yl]-2-methyl-piperazin-1-yl]-2-oxo-ethyl]triazol-4-yl]methoxy]ethoxy]ethoxy]ethoxy]ethoxy]phenoxy]pyridine-3-carbonyl]amino]-5,5-dimethyl-hexanoic acid], the Kd under setting [2] lay in the range of 1 to 10 nM.
The same measure, in the same setting: the figure for `C[C@@H]1CN(c2ncc(-c3ccc4c(n3)N(Cc3cccnc3C#N)C(C)(C)C4=O)cn2)CCN1C(=O)COCCCCNc1cccc(Oc2ccc(C(=O)N[C@@H](CCC(C)(C)C)C(=O)O)cn2)c1` [BF046] is less than 1 nM.
On the same count and under the same terms, the figure for `CC(C)(C)CC[C@H](NC(=O)c1ccc(Oc2cccc(C(=O)NCCOCCOCCOCCOCCNc3ncc(-c4ccc5c(n4)N(Cc4cccnc4C#N)C(C)(C)C5=O)cn3)c2)nc1)C(=O)O` [BF062, (2S)-2-[[6-[3-[2-[2-[2-[2-[2-[[5-[1-[(2-cyano-3-pyridyl)methyl]-2,2-dimethyl-3-oxo-pyrrolo[2,3-b]pyridin-6-yl]pyrimidin-2-yl]amino]ethoxy]ethoxy]ethoxy]ethoxy]ethylcarbamoyl]phenoxy]pyridine-3-carbonyl]amino]-5,5-dimethyl-hexanoic acid] is 1 to 10 nM.
On to `CC[C@H](C)[C@H](NC(=O)[C@H](CC(C)C)NC(=O)[C@H](CCC(N)=O)NC(=O)[C@@H](N)CCCNC(=N)N)C(=O)O` [compound 163] (H-RQLI-OH), for which, under setting [1], the dissociation constant (Kd) is greater than 2500 nM.
`C[C@@H]1CN(c2ncc(-c3ccc4c(n3)N(Cc3cccnc3C#N)C(C)(C)C4=O)cn2)CCN1C(=O)COCCCCCCCCNC(=O)c1cccc(Oc2ccc(C(=O)N[C@@H](CCC(C)(C)C)C(=O)O)cn2)c1` [BF041]: the Kd under setting [2] is less than 1 nM.
Regarding `CC(C)(C)CC[C@H](NC(=O)c1ccc(Oc2cccc(OCC(=O)NCCOCCOCCOCCOCCOCCOc3ncc(-c4ccc5c(n4)N(Cc4cccnc4C#N)C(C)(C)C5=O)cn3)c2)nc1)C(=O)O` [BF143, (S)-2-(6-(3-((20-((5-(1-((2-cyanopyridin-3-yl)methyl)-2,2-dimethyl-3-oxo-2,3-dihydro-1H-pyrrolo[2,3-b]pyridin-6-yl)pyrimidin-2-yl)oxy)-2-oxo-6,9, 12, 15, 18-pentaoxa-3-azaicosyl)oxy)phenoxy)nicotinamido)-5,5-dimethylhexanoic acid], the Kd under setting [2] lay in the range of 1 to 10 nM.
Regarding `CC(C)C[C@H](NC(=O)[C@H](Cc1ccccc1)NC(=O)[C@H](CCC(N)=O)NC(=O)[C@@H](N)CCCNC(=N)N)C(=O)O` [compound 38] (H-RQFL-OH), under setting [1], the dissociation constant Kd was in the range of 250 to 2500 nM.
The same measure, in the same setting: the figure for GGSGGGGSGGGGSGGRQLL-OH [compound 167] is 25 to 250 nM; for `CC(C)C[C@H](NC(=O)[C@H](CCC(N)=O)NC(=O)[C@@H](N)CCCNC(=N)N)C(=O)O` [compound 166] (H-Arg-Gln-Leu-OH) it is greater than 2500 nM.
In the case of `CC(C)(C)CC[C@H](NC(=O)c1ccc(Oc2cccc(C(=O)NCCOCCOCCOCCNc3ncc(-c4ccc5c(n4)N(Cc4cccnc4C#N)C(C)(C)C5=O)cn3)c2)nc1)C(=O)O` [BF030, (2S)-2-[[6-[3-[2-[2-[2-[2-[[5-[1-[(2-cyano-3-pyridyl)methyl]-2,2-dimethyl-3-oxo-pyrrolo[2,3-b]pyridin-6-yl]pyrimidin-2-yl]amino]ethoxy]ethoxy]ethoxy]ethylcarbamoyl]phenoxy]pyridine-3-carbonyl]amino]-5,5-dimethyl-hexanoic acid], the dissociation constant Kd under setting [2] is less than 1 nM.
On the same count and under the same terms, the figure for `CC(C)(C)CC[C@H](NC(=O)c1ccc(Oc2cccc(C(=O)NCCOCCOCCOCCOCCNc3ccc([N+](=O)[O-])cc3[N+](=O)[O-])c2)nc1)C(=O)O` [BF003, (2S)-2-[[6-[3-[2-[2-[2-[2-[2-(2,4-dinitroanilino)ethoxy]ethoxy]ethoxy]ethoxy]ethylcarbamoyl]phenoxy]pyridine-3-carbonyl]amino]-5,5-dimethyl-hexanoic acid] is 1 to 10 nM.
For the compound `CC(C)C[C@H](NC(=O)[C@H](Cc1ccccc1)NC(=O)[C@H](Cc1ccc(O)cc1)NC(=O)[C@@H](N)CCCNC(=N)N)C(=O)O` [compound 37] (H-RYFL-OH), the dissociation constant (Kd) under setting [1] was 250 to 2500 nM.
As to `Cc1nc2cc(F)c(-c3cnc(OCCOCCn4cc(COCC(=O)N5CC(OCCNC(=O)COc6cccc(Oc7ccc(C(=O)N[C@@H](CCC(C)(C)C)C(=O)O)cn7)c6)C5)nn4)nc3)nc2c(N[C@H](C)c2cc(C#N)ccc2F)c1Cl` [BF088, (2S)-2-[[6-[3-[2-[2-[1-[2-[[1-[2-[2-[5-[7-chloro-8-[[(1R)-1-(5-cyano-2-fluoro-phenyl)ethyl]amino]-3-fluoro-6-methyl-1,5-naphthyridin-2-yl]pyrimidin-2-yl]oxyethoxy]ethyl]triazol-4-yl]methoxy]acetyl]azetidin-3-yl]oxyethylamino]-2-oxo-ethoxy]phenoxy]pyridine-3-carbonyl]amino]-5,5-dimethyl-hexanoic acid], the equilibrium dissociation constant (Kd) under setting [2] was 1 to 10 nM.
Same read-out and setting: the figure for `CC(C)(C)CC[C@H](NC(=O)c1ccc(Oc2cccc(C(=O)NCCOCCOCCOc3ncc(-c4ccc5c(n4)N(Cc4cccnc4C#N)C(C)(C)C5=O)cn3)c2)nc1)C(=O)O` [BF070, (2S)-2-[[6-[3-[2-[2-[2-[5-[1-[(2-cyano-3-pyridyl)methyl]-2,2-dimethyl-3-oxo-pyrrolo[2,3-b]pyridin-6-yl]pyrimidin-2-yl]oxyethoxy]ethoxy]ethylcarbamoyl]phenoxy]pyridine-3-carbonyl]amino]-5,5-dimethyl-hexanoic acid] is 1 to 10 nM.
With `CC(C)C[C@H](NC(=O)[C@H](Cc1ccc(O)cc1)NC(=O)[C@H](Cc1ccc(O)cc1)NC(=O)[C@@H](N)CCCNC(=N)N)C(=O)O` [compound 36] (H-RYYL-OH), the dissociation constant (Kd) under setting [1] fell in the range of 25 to 250 nM.

As a reminder, the Kd is the equilibrium constant for the complex coming apart.
